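Interpolation was linear, between the two tested concentrations surrounding the appropriate level; five concentrations were tested over 48 hours in 96-well plates. Here, GI50 denotes the concentration required for 50% inhibition of growth. TGI denotes the concentration required for complete inhibition of growth.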
Columns and labels:
Experiment in all cases: DTP human tumour cell line panel, 48 h
SNB-19 CNS = tested on: SNB-19 CNS
NCI-H23 lung = tested on: NCI-H23 lung
NCI/ADR-RES ovarian = tested on: NCI/ADR-RES ovarian
OVCAR-8 ovarian = tested on: OVCAR-8 ovarian
HL-60(TB) leukemia = tested on: HL-60(TB) leukemia
A549 NSCLC = tested on: A549 NSCLC
MDA-MB-435 = tested on: MDA-MB-435
NCI-H226 lung = tested on: NCI-H226 lung
CAKI-1 renal = tested on: CAKI-1 renal
BT-549 breast = tested on: BT-549 breast
MCF7 breast = tested on: MCF7 breast
T-47D breast = tested on: T-47D breast
SN12C renal = tested on: SN12C renal
TK-10 renal = tested on: TK-10 renal
SNB-75 CNS = tested on: SNB-75 CNS
MOLT-4 leukemia = tested on: MOLT-4 leukemia
HCT-15 colon = tested on: HCT-15 colon
SK-MEL-2 melanoma = tested on: SK-MEL-2 melanoma
LOX IMVI melanoma = tested on: LOX IMVI melanoma
HCC-2998 colon = tested on: HCC-2998 colon
OVCAR-3 ovarian = tested on: OVCAR-3 ovarian
ACHN renal = tested on: ACHN renal
HOP-92 NSCLC = tested on: HOP-92 NSCLC
SF-539 CNS = tested on: SF-539 CNS
786-0 renal = tested on: 786-0 renal
HS 578T breast = tested on: HS 578T breast
SF-295 CNS = tested on: SF-295 CNS
RPMI-8226 leukemia = tested on: RPMI-8226 leukemia
MDA-MB-231 breast = tested on: MDA-MB-231 breast
U251 CNS = tested on: U251 CNS
NCI-H522 lung = tested on: NCI-H522 lung
SK-MEL-28 melanoma = tested on: SK-MEL-28 melanoma
CCRF-CEM leukemia = tested on: CCRF-CEM leukemia
COLO 205 colon = tested on: COLO 205 colon
HCT-116 colon = tested on: HCT-116 colon
KM12 colon = tested on: KM12 colon
OVCAR-5 ovarian = tested on: OVCAR-5 ovarian
DU-145 prostate = tested on: DU-145 prostate
NCI-H460 lung = tested on: NCI-H460 lung
RXF 393 renal = tested on: RXF 393 renal
UO-31 renal = tested on: UO-31 renal
PC-3 prostate = tested on: PC-3 prostate
UACC-257 melanoma = tested on: UACC-257 melanoma
UACC-62 melanoma = tested on: UACC-62 melanoma
MALME-3M melanoma = tested on: MALME-3M melanoma
SK-OV-3 ovarian = tested on: SK-OV-3 ovarian
OVCAR-4 ovarian = tested on: OVCAR-4 ovarian
SK-MEL-5 melanoma = tested on: SK-MEL-5 melanoma
K-562 leukemia = tested on: K-562 leukemia
SF-268 CNS = tested on: SF-268 CNS
M14 melanoma = tested on: M14 melanoma
EKVX NSCLC = tested on: EKVX NSCLC
A498 renal = tested on: A498 renal
HOP-62 NSCLC = tested on: HOP-62 NSCLC
SW-620 colon = tested on: SW-620 colon
IGROV1 ovarian = tested on: IGROV1 ovarian
HT29 colon = tested on: HT29 colon

SMILES: COc1ccc2ncn(-c3cc(O[C@H](C)c4ccccc4C(F)(F)F)c(C(N)=O)s3)c2c1
- GI50 (SNB-19 CNS): 1880 nM
- TGI (SNB-19 CNS): 11300 nM
- GI50 (NCI-H23 lung): 113 nM
- TGI (NCI-H23 lung): 5900 nM
- GI50 (NCI/ADR-RES ovarian): 58.6 nM
- TGI (NCI/ADR-RES ovarian): 185 nM
- GI50 (OVCAR-8 ovarian): 117 nM
- TGI (OVCAR-8 ovarian): 8810 nM
- GI50 (HL-60(TB) leukemia): 90.5 nM
- TGI (HL-60(TB) leukemia): 1010 nM
- GI50 (A549 NSCLC): 119 nM
- TGI (A549 NSCLC): 4220 nM
- GI50 (MDA-MB-435): 46.6 nM
- TGI (MDA-MB-435): 155 nM
- GI50 (NCI-H226 lung): 3070 nM
- TGI (NCI-H226 lung): 12400 nM
- GI50 (CAKI-1 renal): 1650 nM
- TGI (CAKI-1 renal): 17500 nM
- GI50 (BT-549 breast): 474 nM
- TGI (BT-549 breast): 7000 nM
- GI50 (MCF7 breast): 63.7 nM
- TGI (MCF7 breast): 13000 nM
- GI50 (T-47D breast): 2860 nM
- TGI (T-47D breast): 7200 nM
- GI50 (SN12C renal): 1190 nM
- TGI (SN12C renal): 7740 nM
- GI50 (TK-10 renal): 1330 nM
- TGI (TK-10 renal): 7220 nM
- GI50 (SNB-75 CNS): 917 nM
- TGI (SNB-75 CNS): 6600 nM
- GI50 (MOLT-4 leukemia): 122 nM
- TGI (MOLT-4 leukemia): 4430 nM
- GI50 (HCT-15 colon): 134 nM
- TGI (HCT-15 colon): 17200 nM
- GI50 (SK-MEL-2 melanoma): 120 nM
- TGI (SK-MEL-2 melanoma): 4820 nM
- GI50 (LOX IMVI melanoma): 105 nM
- TGI (LOX IMVI melanoma): 3560 nM
- GI50 (HCC-2998 colon): 161 nM
- TGI (HCC-2998 colon): 3270 nM
- GI50 (OVCAR-3 ovarian): 85.8 nM
- TGI (OVCAR-3 ovarian): 863 nM
- GI50 (ACHN renal): 3170 nM
- TGI (ACHN renal): 25000 nM
- GI50 (HOP-92 NSCLC): 143 nM
- TGI (HOP-92 NSCLC): 6440 nM
- GI50 (SF-539 CNS): 131 nM
- TGI (SF-539 CNS): 4070 nM
- GI50 (786-0 renal): 592 nM
- TGI (786-0 renal): 5790 nM
- GI50 (HS 578T breast): 310 nM
- TGI (HS 578T breast): 7180 nM
- GI50 (SF-295 CNS): 162 nM
- TGI (SF-295 CNS): 6160 nM
- GI50 (RPMI-8226 leukemia): 627 nM
- TGI (RPMI-8226 leukemia): 8440 nM
- GI50 (MDA-MB-231 breast): 167 nM
- TGI (MDA-MB-231 breast): 5190 nM
- GI50 (U251 CNS): 166 nM
- TGI (U251 CNS): 6240 nM
- GI50 (NCI-H522 lung): 99.5 nM
- TGI (NCI-H522 lung): 2510 nM
- GI50 (SK-MEL-28 melanoma): 2640 nM
- TGI (SK-MEL-28 melanoma): 8540 nM
- GI50 (CCRF-CEM leukemia): 82.1 nM
- TGI (CCRF-CEM leukemia): 14500 nM
- GI50 (COLO 205 colon): 83.8 nM
- TGI (COLO 205 colon): 3240 nM
- GI50 (HCT-116 colon): 125 nM
- TGI (HCT-116 colon): 3530 nM
- GI50 (KM12 colon): 79.4 nM
- TGI (KM12 colon): 3040 nM
- GI50 (OVCAR-5 ovarian): 162 nM
- TGI (OVCAR-5 ovarian): 14900 nM
- GI50 (DU-145 prostate): 78.4 nM
- TGI (DU-145 prostate): 242 nM
- GI50 (NCI-H460 lung): 88 nM
- TGI (NCI-H460 lung): 2990 nM
- GI50 (RXF 393 renal): 90.2 nM
- TGI (RXF 393 renal): 3720 nM
- GI50 (UO-31 renal): 1790 nM
- TGI (UO-31 renal): 12400 nM
- GI50 (PC-3 prostate): 137 nM
- TGI (PC-3 prostate): 15300 nM
- GI50 (UACC-257 melanoma): 2550 nM
- TGI (UACC-257 melanoma): 6280 nM
- GI50 (UACC-62 melanoma): 142 nM
- TGI (UACC-62 melanoma): 4580 nM
- GI50 (MALME-3M melanoma): 4500 nM
- TGI (MALME-3M melanoma): 9510 nM
- GI50 (SK-OV-3 ovarian): 100 nM
- TGI (SK-OV-3 ovarian): 5560 nM
- GI50 (OVCAR-4 ovarian): 3490 nM
- TGI (OVCAR-4 ovarian): 16100 nM
- GI50 (SK-MEL-5 melanoma): 169 nM
- TGI (SK-MEL-5 melanoma): 3550 nM
- GI50 (K-562 leukemia): 109 nM
- TGI (K-562 leukemia): 19400 nM
- GI50 (SF-268 CNS): 235 nM
- TGI (SF-268 CNS): 8950 nM
- GI50 (M14 melanoma): 98.9 nM
- TGI (M14 melanoma): 3230 nM
- GI50 (EKVX NSCLC): 1330 nM
- TGI (EKVX NSCLC): 13100 nM
- GI50 (A498 renal): 76.4 nM
- TGI (A498 renal): 597 nM
- GI50 (HOP-62 NSCLC): 105 nM
- TGI (HOP-62 NSCLC): 4180 nM
- GI50 (SW-620 colon): 74.9 nM
- TGI (SW-620 colon): 6010 nM
- GI50 (IGROV1 ovarian): 312 nM
- TGI (IGROV1 ovarian): 10500 nM
- GI50 (HT29 colon): 83.9 nM
- TGI (HT29 colon): 3210 nM

— PubChem BioAssay (NCI)
